Experiments:
β-secretase (BACE-1) = biological target: T1, β-secretase (BACE-1) (Homo sapiens, UniProt P56817); assay: Kinetic studies against β-secretase (Lineweaver–Burk and Dixon plots); format: biochemical
T1 construct: purchased Pan Vera; host or cells: baculovirus-expressed
Experimental: Compound 2f was selected for the kinetic studies with substrate concentrations 150, 300 and 450 nM for β-secretase following procedure described in our previous investigation. The Lineweaver–Burk plot (plot of the inverse of velocity (1/v) against the inverse of the substrate concentration (1/[S])) was used to ascertain the mode of inhibition of this compound.

BChE [1] = biological target: T2, BChE (Homo sapiens, UniProt P06276); assay: biochemical
T2 construct: purchased cloud-clone corp., purchased through BIOCOM Africa (Pty) Ltd. RPC348Hu0 2_100
T2 sequence (P06276 29-602): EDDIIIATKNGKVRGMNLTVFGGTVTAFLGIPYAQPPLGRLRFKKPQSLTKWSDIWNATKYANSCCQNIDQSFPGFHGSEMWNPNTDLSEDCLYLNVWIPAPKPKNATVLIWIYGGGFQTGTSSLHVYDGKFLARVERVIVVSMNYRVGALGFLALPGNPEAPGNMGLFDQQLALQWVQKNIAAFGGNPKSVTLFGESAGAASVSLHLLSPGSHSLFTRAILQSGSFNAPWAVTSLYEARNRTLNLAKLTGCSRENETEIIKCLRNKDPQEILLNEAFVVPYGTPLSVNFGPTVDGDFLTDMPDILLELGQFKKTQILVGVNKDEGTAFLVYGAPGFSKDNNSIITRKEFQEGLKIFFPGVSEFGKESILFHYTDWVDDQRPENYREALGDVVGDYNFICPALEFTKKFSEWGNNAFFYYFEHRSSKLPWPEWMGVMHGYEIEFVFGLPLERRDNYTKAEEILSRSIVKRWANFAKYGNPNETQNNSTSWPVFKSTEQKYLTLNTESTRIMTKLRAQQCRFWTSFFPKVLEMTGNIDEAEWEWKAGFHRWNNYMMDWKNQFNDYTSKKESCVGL
Experimental: The mixtures were incubated for 15 min at RT. The reaction was initiated by adding of 10 µL of mixture solution of 5 mM 5,50-dithio-bis-nitrobenzoic acid (DTNB) in 50 mM tris buffer (pH 7.7) and 10 µL acetylthiocholine (ASCh; 5 mM) in 50 mM tris buffer, pH 7.7 into the wells containing the mixtures. The hydrolysis of ASCh was determined by monitoring the formation of the yellow 5-thio-2-nitrobenzoate anion resulting from reaction of DTNB with thiocholines (SCh).
The IC50 values were determined graphically from inhibition curves (inhibitor concentration and absorbance) using the graph pad prism.

[2] = system: lipoxygenase-15 (Soybean LOX-15); format: biochemical; conditions: ratio not defined in print; matches IC50 LOX-15/LOX-5
Experimental: Stock solutions (200 µM) of tested samples were prepared in DMSO. The stock solutions were further diluted with 50 mM Tris buffer of pH 7.7 to obtain concentrations of 0.01, 0.1, 1, 10 and 100 µM. The cells of a 96-well plate where distributed as follows: two wells taken as blanks (100 µL 50 mM Tris buffer pH 7.7), two wells taken as positive controls (90 µL of 15-LO Standard and 10 µL of DMSO) and two wells as 100% initial activity wells (90 µL lipoxygenase enzyme solution and 10 µL tris buffer). […] The 96-well plate was then incubated for 5 min at room temperature. The reaction was initiated by the addition of 10 µL of the substrate (arachidonic acid) to each well containing the mixtures. After shaking the 96-well plate on a shaker for 5 min, 100 µL of the chromogen (solution of equal volume developing reagent 1 and 2) was added to each well to stop enzyme catalysis and develop the reaction. The plate was again shaken for 5 min and the absorbance read at 490 nm in a Varioskan flash microplate spectrophotometer reader. The inhibitory concentration was expressed as a percentage using the formula below. […]
ASample is the absorbance of the reaction mixture of the test sample, ABlank sample is the absorbance of the reaction mixture containing all reagents except enzyme and AInitial activity is the absorbance of 100% initial activity.

AChE [3] = biological target: T3, AChE (Homo sapiens, UniProt P22303); assay: Kinetic studies against AChE (Lineweaver–Burk and Dixon plots); format: biochemical
T3 construct: purchased BL, purchased through BIOCOM Africa (Pty) Ltd. 768104
T3 sequence (P22303 32-614): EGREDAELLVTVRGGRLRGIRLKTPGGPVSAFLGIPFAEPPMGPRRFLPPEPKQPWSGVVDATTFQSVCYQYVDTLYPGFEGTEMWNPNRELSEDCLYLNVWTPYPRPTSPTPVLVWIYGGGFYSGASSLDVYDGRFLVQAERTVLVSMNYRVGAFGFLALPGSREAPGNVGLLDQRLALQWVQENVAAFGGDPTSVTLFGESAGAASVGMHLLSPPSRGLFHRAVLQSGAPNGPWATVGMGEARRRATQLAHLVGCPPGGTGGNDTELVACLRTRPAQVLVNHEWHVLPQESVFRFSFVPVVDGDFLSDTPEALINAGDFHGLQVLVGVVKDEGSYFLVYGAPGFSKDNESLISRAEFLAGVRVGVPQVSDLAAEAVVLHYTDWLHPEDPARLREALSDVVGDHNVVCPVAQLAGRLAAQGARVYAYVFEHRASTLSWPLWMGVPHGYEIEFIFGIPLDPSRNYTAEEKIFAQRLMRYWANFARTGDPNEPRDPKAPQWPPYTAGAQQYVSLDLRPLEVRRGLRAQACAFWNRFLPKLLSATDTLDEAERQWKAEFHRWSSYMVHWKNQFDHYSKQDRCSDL
Experimental: (§1) Compounds 2f, 2b, 2f, 3b, 3d and 3f were selected for the kinetic studies with substrate concentrations 0.1, 0.5, 2. 5 and 5 µM for ChEs following procedures described in our previous investigation. The Lineweaver–Burk plots (plots of the inverse of velocity (1/v) against the inverse of the substrate concentration (1/[S])) were used to ascertain the mode of inhibition of these compounds.

AChE [4] = biological target: T3, AChE; assay: biochemical
human recombinant BACE-1 = biological target: T4, human recombinant BACE-1 (Homo sapiens, UniProt P56817); assay: β-secretase FRET inhibitory assay; format: biochemical; conditions: triplicate
T4 construct: purchased Pan Vera; host or cells: baculovirus-expressed
T4 sequence (P56817 46-501): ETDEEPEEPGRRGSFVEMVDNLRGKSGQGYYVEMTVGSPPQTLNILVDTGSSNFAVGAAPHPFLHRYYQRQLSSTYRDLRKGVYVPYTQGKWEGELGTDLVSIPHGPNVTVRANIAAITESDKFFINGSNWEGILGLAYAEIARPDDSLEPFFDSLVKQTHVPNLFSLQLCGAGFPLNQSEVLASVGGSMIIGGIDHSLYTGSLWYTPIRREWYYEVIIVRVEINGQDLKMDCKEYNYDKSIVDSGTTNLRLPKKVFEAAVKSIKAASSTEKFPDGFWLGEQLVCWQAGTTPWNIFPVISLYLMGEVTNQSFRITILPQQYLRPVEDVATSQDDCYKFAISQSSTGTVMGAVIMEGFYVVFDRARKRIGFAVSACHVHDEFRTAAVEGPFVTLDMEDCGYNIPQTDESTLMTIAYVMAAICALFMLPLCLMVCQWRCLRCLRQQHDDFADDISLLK

[5] = biological target: T5, human lipoxygenase-5 (LOX-5) (Homo sapiens, UniProt P09917); assay: Human LOX-5 inhibitory assay; format: biochemical; conditions: human LOX-5, duplicate
T5 construct: purchased BioVision K980
T5 sequence (P09917 1-674): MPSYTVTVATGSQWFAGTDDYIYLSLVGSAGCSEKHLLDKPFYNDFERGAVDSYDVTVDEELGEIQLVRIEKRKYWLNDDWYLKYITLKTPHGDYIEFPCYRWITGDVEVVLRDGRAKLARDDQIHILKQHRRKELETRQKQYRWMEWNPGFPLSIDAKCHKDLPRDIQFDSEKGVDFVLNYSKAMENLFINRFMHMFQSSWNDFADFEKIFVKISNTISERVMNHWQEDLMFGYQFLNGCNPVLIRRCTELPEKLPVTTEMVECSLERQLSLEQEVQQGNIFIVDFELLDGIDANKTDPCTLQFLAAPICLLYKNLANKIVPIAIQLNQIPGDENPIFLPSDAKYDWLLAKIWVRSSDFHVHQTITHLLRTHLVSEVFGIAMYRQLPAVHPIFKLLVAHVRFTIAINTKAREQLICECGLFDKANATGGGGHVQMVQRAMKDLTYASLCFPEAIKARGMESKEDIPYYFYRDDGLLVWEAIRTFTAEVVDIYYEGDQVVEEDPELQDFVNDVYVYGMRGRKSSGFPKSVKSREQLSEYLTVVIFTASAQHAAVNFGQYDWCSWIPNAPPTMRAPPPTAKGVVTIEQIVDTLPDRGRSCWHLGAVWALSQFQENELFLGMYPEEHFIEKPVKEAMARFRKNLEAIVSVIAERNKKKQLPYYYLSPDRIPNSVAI
Experimental: The reagents were prepared according to the Lipoxygenase inhibitor screening kit (Item No. K980; BioVision, Milpitas Blvd, Milpitas, CA, USA) standard protocol. […] The cells of a 96-well plate where distributed as follows: two wells were taken as blanks (100 µL of assay buffer), two wells enzyme controls (90 µL of 15-LO Standard and 10 µL of tris buffer), two wells as 100% initial activity wells (90 µL and 10 µL DMSO) and three wells as enzyme control (40 µL). […] Forty µL of the reaction mixture (prepared by mixing thoroughly 36 µL of LOX assay buffer, 2 µL of LOX probe and 2 µL of 5-LOX enzyme) were added to each well and incubated for 10 min. at RT. The DMSO concentration in each reaction well was 1% to prevent enzyme structural deformation and therefore, reduced activity. […] The percentage inhibition (%) was calculated using the equation below. (4) % Inhibition=Control−Test/Control×100.

[6] = system: breast cancer cell line MCF-7; assay: MTT cytotoxicity assay, MCF-7; format: cell-based; conditions: Homo sapiens, MCF7; MTT assay, 24 h, preliminary; read-out: IC50 against MCF-7 cancer cell line
Experimental: (§2) Briefly, the cells were seeded in 96-well plate at a density of 20 × 10^3 cells per well and then incubated at 37 °C in 5% CO2 to allow cell attachment. […] An equal volume of medium was used as the control treatment. After treatment for 24 h, 10 μL MTT (5 mg/mL) was added to each well and the plate was further incubated for 4 h later. The supernatant was removed and 100 μL of DMSO was added to each well to dissolve the resulting formazan crystals. The absorbance was read at 570 nm using the Varioskan flash microplate spectrophotometer reader. The percentages of cell viability were used to determine the IC50 values.

BChE [7] = biological target: T2, BChE; assay: Kinetic studies against BChE (Lineweaver–Burk and Dixon plots); format: biochemical
Experimental: as §1

[8] = DPPH radical scavenging activity assay; conditions: triplicate, preliminary
Experimental: DPPH radical scavenging activity of compounds 2b, 2f, 3b, 3d and 3f was evaluated following the literature method. Ascorbic acid (Sigma Aldrich, Saint Louis, Missouri, USA) was used as a positive control. The test compounds and controls at various concentrations ranging from (0 µM to 40 µM) in DMSO were mixed with a solution of DPPH (0.20 mM) in methanol. The mixtures were incubated in the dark for 45 min and the absorbances were recorded at 512 nm using Varioskan flash microplate spectrophotometer reader. All tests and analyses were run in triplicate and averaged. The inhibition was calculated in terms of percentage using the formula below:(5) DPPH radical scavenged (%)=AbC−AbS/AbC×100, where AbC is absorbance of control and AbS the absorbance of the test sample.

Hek293-T cells = assay: MTT cytotoxicity assay, Hek293-T; format: cell-based; conditions: 24 h, till 50 μM
Experimental: as §2

[9] = Lineweaver–Burk and Dixon plots

T1 sequence (P56817 46-501): as the sequence (P56817 46-501) above

Q: With `COc1ccc(-c2cc3cc4c(=O)c(C=O)coc4cc3o2)cc1` [Compound 2f, 2-(4-Methoxyphenyl)-5-oxo-5H-furo[3,2-g]chromene-6-carbaldehyde] as the molecule, how does the Ki (β-secretase (BACE-1); Dixon plot) read?
A: 1.49 ± 0.01 µM

Q: And the “mode of inhibition against β-secretase” value (β-secretase (BACE-1); [9])?
A: mixed mode of inhibition

Q: What about the IC50 (BChE [1]; Ellman's method, triplicate) of the same molecule?
A: 5.1 ± 0.02 µM

Q: And the “SI AChE/BChE” value (BChE [1]; Selectivity index IC50 (AChE)/IC50 (BChE))?
A: 1.85

Q: And the “SI (LOX-15 vs LOX-5)” value [2]?
A: 0.63

Q: What about the Ki (AChE [3]; Dixon plots) of the same molecule?
A: 1.34 ± 0.02 µM

Q: What about the “mode of inhibition against AChE” value (AChE [3]; [9]) of the same molecule?
A: competitive

Q: What about the “Vmax against AChE” value (AChE [3]; Lineweaver–Burk plots, increasing inhibitor concentration) of the same molecule?
A: 0.03 ± 0.018

Q: What about the IC50 (AChE [4]) of the same molecule?
A: 9.4 ± 0.01 µM

Q: And the “SI BChE/AChE” value (AChE [4]; Selectivity index IC50 (BChE)/IC50 (AChE))?
A: 0.54

Q: What about the IC50 (human recombinant BACE-1) of the same molecule?
A: 15.4 ± 0.02 µM

Q: What about the IC50 [5] of the same molecule?
A: 15.3 ± 0.01 µM

Q: And the IC50 [6]?
A: 8.65 ± 0.03 µM

Q: What about the Ki (BChE [7]; Dixon plots) of the same molecule?
A: 3.9 ± 0.01 µM

Q: What about the “mode of inhibition against BChE” value (BChE [7]; [9]) of the same molecule?
A: non-competitive

Q: And the IC50 [8]?
A: 18.1 ± 0.03 µM

Q: And the “toxicity in Hek293-T cells” value (Hek293-T cells)?
A: did not show any major toxicity

From publication PMC6862662, “In Vitro Evaluation and Docking Studies of 5-oxo-5H-furo[3,2-g]chromene-6-carbaldehyde Derivatives as Potential Anti-Alzheimer’s Agents” (International Journal of Molecular Sciences, 2019)
